# Data: ChEMBL document CHEMBL1154963, “Part 2: Structure-activity relationship (SAR) investigations of fused pyrazoles as potent, selective and orally available inhibitors of p38alpha mitogen-activated protein kinase” (Bioorg Med Chem Lett, 2010)
# What was measured:
# Format in all cases: ADME, organism-based
# [1] = Clearance in Sprague-Dawley rat at 2 mg/kg, iv; set-up: dose 2 mg/kg, route intravenous; conditions: in vivo
# [2] = Volume of distribution at steady state in Sprague-Dawley rat at 2 mg/kg, iv; set-up: dose 2 mg/kg, route intravenous; conditions: in vivo, read-out: Vdss
# [3] = Half life in Sprague-Dawley rat at 2 mg/kg, iv; set-up: dose 2 mg/kg, route intravenous; conditions: in vivo
# [4] = AUC (0 to infinity) in Sprague-Dawley rat at 2 mg/kg, po; set-up: time infinity, dose 2 mg/kg, route oral; conditions: plasma
# [5] = Oral bioavailability in Sprague-Dawley rat at 2 mg/kg; conditions: in vivo
Structure (SMILES),clearance [1] [mL/min/kg],Vd [2] [L/kg],half-life [3] [h],AUC(0-inf) [4] [ng·h/mL],bioavailability [5] [%]
Cc1nnc(Nc2cc(C(=O)NC3CC3)ccc2Cl)c2cnn(-c3c(F)cccc3F)c12,7.83,1.4,2.2,3880,91
Cc1ccc(C(=O)NC2CC2)cc1Nc1nncc2c1cnn2-c1c(F)cccc1F,9.67,1.6,2.8,671,19
O=C(NC1CC1)c1ccc(Cl)c(Nc2nncc3c2cnn3-c2c(F)cccc2F)c1,3.67,1.1,3.6,6830,75
O=C(NC1CC1)c1ccc(Cl)c(Nc2nncc3c2cnn3-c2ccc(F)cc2F)c1,2.67,0.89,3.5,6550,53
